Assay results from patent US6963012B2, “Diaryl ether derivative, addition salt thereof, and immunosuppressant” (Kyorin Pharmaceutical Co., Ltd., priority 2001, dated 2005).
Where a name gives a salt, the structure may show the parent alone.

Experiments:
[1] = test system: Host vs Graft Rejection in Mice; experiment: Ability of test compounds to suppress host vs graft rejection in mice (popliteal lymph node weight); type: in vivo, mice (C3H/HeN, BALB/c stimulation cells); details: Mus musculus
Experimental: Ability of Test Compounds to Suppress Host vs Graft Rejection in Mice
This experiment was performed according to the method described in Transplantation, 55, No.3 (1993): 578-591. Spleens were collected from 9 to 11 week old male BALB/c mice (CLEA JAPAN Inc., CHARLES RIVER JAPAN Inc., or JAPAN SLC Inc.). The spleens were placed in a phosphate-buffered saline (PBS(−), NISSUI PHARMACEUTICAL Co., Ltd.) or in an RPMI-1640 medium (GIBCO […] Inc., or IWAKI GLASS Co., Ltd.) and were either passed through a stainless steel mesh, or gently pressed between two slide glasses and then passed through a cell strainer (70 μm, Falcon), to form a cell suspension. The suspension was then centrifuged and the supernatant was discarded. An ammonium chloride-Tris isotonic buffer was added to the suspension to lyse erythrocytes. The cells were then centrifuged and washed three times in PBS (−) or RPMI-1640 medium and were resuspended in an RPMI-1640 medium. To this suspension, mitomycin C (KYOWA HAKKO KOGYO Co., Ltd.) was added to a final concentration of 25 μg/mL and the suspension was incubated for 30 minutes at 37° C. in a 5% CO2 atmosphere. The cells were again centrifuged and washed in PBS (−) or RPMI-1640 medium and were resuspended in an RPMI-1640 medium so that the medium would contain 2.5×10^8 cells/mL. This suspension served as a “stimulation cell suspension.” Using a 27G needle along with a microsyringe (Hamilton), 20 μL (5×10^6 cells/mouse) of the stimulation cell suspension was subcutaneously injected into the right hind footpad of 7 to 9 week old male C3H/HeN mice (CLEA JAPAN Inc., CHARLES RIVER JAPAN Inc., or JAPAN SLC Inc.). A group of mice was injected with RPMI-1640 medium alone to serve as normal control. 4 days after the injection, right popliteal lymph nodes were collected and were weighed on a Mettler AT201 electronic scale (METTLER TOLEDO Co., Ltd.). Each animal was intraperitoneally administered a test compound once a day for four consecutive days starting on the day of the injection of the stimulation cells (i.e., total of 4 times). Controls were administered a vehicle that has the same composition as that used in the preparation of the test compounds.

[2] = test system: Delayed-type Hypersensitivity in Mice; experiment: Ability of test compounds to suppress delayed-type hypersensitivity in mice (DNFB, ear thickness); type: in vivo, mice (BALB/c); details: dose 3 mg/kg, orally, 30 minutes before DNFB challenge; increase in ear thickness 24 hours after the challenge
Experimental: <Experiment 2> Ability of Test Compounds to Suppress Delayed-type Hypersensitivity in Mice. […] The sensitization was done for 2 consecutive days (day 0 and day 1). On day 5, the ears of the mice were challenged with the antigen to induce delayed-type hypersensitive responses: First, the thickness of each ear was measured by the dial thickness gauge G (0.01-10 mm, OZAKI MFG Co., Ltd.). Next, a test compound was administered. 30 minutes after the administration, 10 μL of a 0.2% (v/v) DNFB solution was applied to the inner and outer surfaces of the right ear of each animal for antigen challenge. The left ear of each animal was challenged with the solvent alone. 24 hours after the challenge, the increase in the ear thickness was measured for each ear and the difference between the right and the left ears was determined for each individual. The test compound was dissolved, or suspended, in an ultra pure water and was orally administered at a dose of 0.1 mL/10 g of body weight. A control group was administered ultra pure water alone.

Row | Compound | melting point [°C] | inhibition at 3 mg/kg [1] [%] | Inhibition [2] [%] | inhibition at 10 mg/kg [1] [%]
1 | Cl.NC(CO)(CO)CCCCc1ccc(Oc2cccc(OCc3ccccc3)c2)cc1Cl | 95 to 97 |  |  | 
2 | Cl.NC(CO)(CO)CCCc1ccc(Oc2cccc(OCCCc3ccccc3)c2)cc1 [Example 148, 2-amino-2-[4-(3-phenylpropyloxyphenoxy)phenyl]propyl-1,3-propanediol hydrochloride] | 95 to 98 | 78 |  | 
3 | Cl.NC(CO)(CO)CCCc1ccc(Oc2cccc(OCc3ccccc3)c2)cc1Cl [Example 173, 2-amino-2-[4-(3-benzyloxyphenoxy)-2-chlorophenyl]propyl-1,3-propanediol hydrochloride] | 105 to 106 | 100 | 64 | 
4 | Cl.NC(CO)(CO)C/C=C/c1ccc(Oc2cc(C(F)(F)F)cc(C(F)(F)F)c2)cc1 | 203 to 206 |  |  | 
5 | Cl.NC(CO)(CO)CCOc1ccc(Oc2cc(C(F)(F)F)cc(C(F)(F)F)c2)cc1 | 151 to 155 |  |  | 
6 | Cl.NC(CO)(CO)CCCc1ccc(Oc2cc(C(F)(F)F)cc(C(F)(F)F)c2)cc1 [Example 147, 2-amino-2-[4-(3,5-bistrifluoromethylphenoxy)phenyl]propyl-1,3-propanediol hydrochloride] | 194 to 196 |  |  | 82
7 | CC(C)c1cccc(Oc2ccc(CCCC(N)(CO)CO)cc2)c1 [Example 150, 2-amino-2-[4-(3-isopropylphenoxy)phenyl]propyl-1,3-propanediol hydrochloride] |  |  |  | 78
8 | Cl.NC(CO)(CO)CCc1ccc(Oc2cccc(OCc3ccccc3)c2)cc1Cl | 150 to 152 |  |  | 
